# pIC50: −log10 of the molar value.
# Columns and labels:
# Format in all cases: biochemical
# [1] = target: T1, human Aurora-C (Homo sapiens, UniProt Q9UQB9); assay: Aurora-C kinase assay (HTRF); details: 10 μM ATP
# T1 construct: GST; made in house; host or cells: transiently transfected HEK293 cells
# T1 sequence (Q9UQB9 1-309): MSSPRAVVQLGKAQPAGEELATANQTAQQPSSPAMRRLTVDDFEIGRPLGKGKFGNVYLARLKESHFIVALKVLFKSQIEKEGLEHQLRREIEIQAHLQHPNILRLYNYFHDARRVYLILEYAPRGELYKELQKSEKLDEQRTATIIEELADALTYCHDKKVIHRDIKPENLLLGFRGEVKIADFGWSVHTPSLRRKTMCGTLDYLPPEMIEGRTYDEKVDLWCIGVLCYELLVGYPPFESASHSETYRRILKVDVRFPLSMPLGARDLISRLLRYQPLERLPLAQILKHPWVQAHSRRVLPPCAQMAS
# Description: The Aurora-C inhibitory activity of the substances of this invention was measured in the Aurora-C-HTRF assay (HTRF=Homogeneous Time Resolved Fluorescence) described in the following paragraphs.
# Recombinant fusion protein of GST and human Aurora-C was expressed in transiently transfected HEK293 cells and purified by affinity chromatography on glutathione-Sepharose. The substrate used for the kinase reaction was the biotinylated peptide biotin-Ttds-FMRLRRLSTKYRT (C terminus in amide form) which can be purchased for example from JERINI Peptide Technologies (Berlin). Aurora-C was incubated in the presence of various concentrations of test substances in 5 μL of assay buffer [25 mM Hepes/NaOH pH 7.4, 0.5 mM MnCl2, 2.0 mM dithiothreitol, 0.1 mM sodium orthovanadate, 10 μM adenosine triphosphate (ATP), […] substrate, 0.01% (v/v) TritonX-100 (Sigma), 0.05% (w/v) bovine serum albumin (BSA), 1% (v/v) dimethyl sulphoxide] at 22° C. for 60 min. The concentration of Aurora-C was adapted to the particular activity of the enzyme and adjusted so that the assay operated in the linear range. Typical concentrations were in the region of 0.3 nM. The reaction was stopped by adding 5 μl of a solution of HTRF detection reagents (0.2 μM streptavidin-XLent and 1.4 nM anti-phospho-(Ser/Thr)-Akt substrate-Eu-cryptate (Cis biointernational, France, product No. 61P02KAE), a Europium-cryptate-labelled phospho-(Ser/Thr)-Akt substrate antibody [product #9611B, Cell Signaling Technology, Danvers, Mass., USA]) in aqueous EDTA solution (40 mM EDTA, 400 mM KF, 0.05% (w/v) bovine serum albumin (BSA) in 25 mM HEPES/NaOH pH 7.0).
# The resulting mixture was incubated at 22° C. for 1 h in order to allow formation of a complex of the biotinylated phosphorylated substrate and the detection reagents. The amount of phosphorylated substrate was then estimated by measuring the resonance energy transfer from the anti-phospho-(Ser/Thr)-Akt substrate-Eu cryptate to the streptavidin-XLent. For this purpose, the fluorescence emissions at 620 nm and 665 nm after excitation at 350 nm were measured in an HTRF measuring instrument, e.g. a Rubystar (BMG Labtechnologies, Offenburg, Germany) or a Viewlux (Perkin-Elmer). The ratio of the emissions at 665 nm and at 622 nm was taken as a measure of the amount of phosphorylated substrate. The data were normalized (enzymic reaction without inhibitor=0% inhibition, all other assay components but no enzyme=100% inhibition) and IC50 values were calculated with a 4-parameter fit using an inhouse software.
# [2] = target: T2, CDK1/CycB (Homo sapiens, UniProt P06493); assay: CDK1/CycB kinase assay; details: 0.5 μM ATP
# T2 construct: GST; purchased ProQinase GmbH, Freiburg; host or cells: baculovirus-infected insect cells (Sf9)
# T2 sequence (P06493 whole entry): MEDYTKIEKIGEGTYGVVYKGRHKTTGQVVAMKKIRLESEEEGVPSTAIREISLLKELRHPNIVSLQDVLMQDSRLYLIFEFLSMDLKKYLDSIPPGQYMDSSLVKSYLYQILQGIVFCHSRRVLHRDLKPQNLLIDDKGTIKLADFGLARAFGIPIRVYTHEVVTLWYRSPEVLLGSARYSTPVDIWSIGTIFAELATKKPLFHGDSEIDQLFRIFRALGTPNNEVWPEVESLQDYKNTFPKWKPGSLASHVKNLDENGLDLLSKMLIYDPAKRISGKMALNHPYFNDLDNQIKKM
# T2 sequence (P14635 whole entry partner): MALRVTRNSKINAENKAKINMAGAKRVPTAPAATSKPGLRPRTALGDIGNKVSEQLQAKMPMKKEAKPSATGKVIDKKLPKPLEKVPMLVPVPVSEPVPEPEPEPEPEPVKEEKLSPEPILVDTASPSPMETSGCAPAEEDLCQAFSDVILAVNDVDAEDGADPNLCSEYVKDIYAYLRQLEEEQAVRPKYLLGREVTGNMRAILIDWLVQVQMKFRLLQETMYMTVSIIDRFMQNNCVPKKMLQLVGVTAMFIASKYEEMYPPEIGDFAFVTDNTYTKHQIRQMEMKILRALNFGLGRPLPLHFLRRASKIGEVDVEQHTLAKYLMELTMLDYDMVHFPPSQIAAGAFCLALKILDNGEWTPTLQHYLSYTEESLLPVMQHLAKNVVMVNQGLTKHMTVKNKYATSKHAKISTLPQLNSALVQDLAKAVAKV
# Description: Recombinant CDK1- and CycB-GST fusion proteins, purified from baculovirus-infected insect cells (Sf9), were purchased from ProQinase GmbH, Freiburg. The histone IIIS used as kinase substrate can be purchased from Sigma.
# CDK1/CycB (5 ng/μL) was incubated in the presence of various concentrations of test substances (0 μM, and within the range 0.01-100 μM) in 40 μL of assay buffer [50 mM Tris/HCl pH 8.0, 10 mM MgCl2, 0.1 mM Na ortho-vanadate, 1.0 mM dithiothreitol, 0.025% PEG 20000, 0.5 μM ATP, 10 μM histone IIIS, 0.2 μCi/measurement point ^33P-gamma ATP, 0.05% NP40, 1.25% dimethyl sulphoxide] at 22° C. for 10 min. The reaction was stopped by adding EDTA solution (250 mM, pH 8.0, 15 μl/measurement point). 15 μl of each reaction mixture were loaded onto P30 filter strips (from Wallac), and non-incorporated ^33P-ATP was removed by washing the filter strips three times in 0.5% strength phosphoric acid for 10 min each time. After the filter strips had been dried at 70° C. for 1 hour, the filter strips were covered with scintillator strips (MeltiLex™ A, from Wallac) and baked at 90° C. for 1 hour. The amount of incorporated ^33P (substrate phosphorylation) was determined by scintillation measurement in a gamma radiation counter (Wallac).
# (§1) The measured data were normalized to 0% inhibition (enzyme reaction without inhibitor) and 100% inhibition (all assay components except enzyme). The IC50 values were determined by means of a 4-parameter fit using the company's own software.
# [3] = target: T3, CDK2/CycE (Homo sapiens, UniProt P24941); assay: CDK2/CycE kinase assay; details: 0.5 μM ATP
# T3 construct: GST; purchased ProQinase GmbH, Freiburg; host or cells: baculovirus-infected insect cells (Sf9)
# Description: Recombinant CDK2- and CycE-GST fusion proteins, purified from baculovirus-infected insect cells (Sf9), were purchased from ProQinase GmbH, Freiburg. The histone IIIS used as kinase substrate was purchased from Sigma. CDK2/CycE (1.25 ng/μL) was incubated in the presence of various concentrations of test substances (0 μM, and within the range 0.01-100 μM) in 40 μL of assay buffer [50 mM Tris/HCl pH 8.0, 10 mM MgCl2, 0.1 mM Na ortho-vanadate, 1.0 mM dithiothreitol, 0.5 μM ATP, 0.2% PEG20000, 10 μM histone IIIS, 0.2 μCi/measurement point ^33P-gamma ATP, 0.05% NP40, 1.25% dimethyl sulphoxide] at 22° C. for 10 min. The reaction was stopped by adding EDTA solution (250 mM, pH 8.0, 15 μl/measurement point).
# 15 μl of each reaction mixture were loaded onto P30 filter strips (from Wallac), and non-incorporated ^33P-ATP was removed by washing the filter strips three times in 0.5% strength phosphoric acid for 10 min each time.
# (§2) After the filter strips had been dried at 70° C. for 1 hour, the filter strips were covered with scintillator strips (MeltiLex™ A, from Wallac) and baked at 90° C. for 1 hour. The amount of incorporated ^33P (substrate phosphorylation) was determined by scintillation measurement in a gamma radiation counter (Wallac).
# as §1
# [4] = target: T4, KDR (VEGFR2) (Homo sapiens, UniProt P35968); assay: KDR kinase assay; details: 8 μM ATP
# T4 construct: GST; purchased ProQinase GmbH, Freiburg; host or cells: baculovirus-infected insect cells (Sf9)
# T4 sequence (P35968 807-1356 limits assumed): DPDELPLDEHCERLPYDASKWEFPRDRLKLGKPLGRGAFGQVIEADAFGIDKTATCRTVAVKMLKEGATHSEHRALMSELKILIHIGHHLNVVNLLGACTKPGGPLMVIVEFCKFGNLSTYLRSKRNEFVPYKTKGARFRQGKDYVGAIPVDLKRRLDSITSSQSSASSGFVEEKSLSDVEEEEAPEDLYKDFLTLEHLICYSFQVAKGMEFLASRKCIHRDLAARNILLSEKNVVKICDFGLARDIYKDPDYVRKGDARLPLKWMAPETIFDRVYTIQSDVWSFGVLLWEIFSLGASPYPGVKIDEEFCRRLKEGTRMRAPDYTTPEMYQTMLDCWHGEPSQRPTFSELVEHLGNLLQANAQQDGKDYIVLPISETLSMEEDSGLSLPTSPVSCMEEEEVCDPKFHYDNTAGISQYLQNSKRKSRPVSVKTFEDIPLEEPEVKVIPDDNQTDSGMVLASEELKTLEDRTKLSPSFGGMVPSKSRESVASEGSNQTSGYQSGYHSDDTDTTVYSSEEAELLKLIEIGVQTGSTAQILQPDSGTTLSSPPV
# Description: Recombinant KDR kinase-GST fusion proteins purified from baculovirus-infected insect cells (Sf9), were purchased from ProQinase GmbH, Freiburg. Poly(Glu4Tyr)n, which was used as kinase substrate, was purchased from Sigma.
# KDR kinase was incubated in the presence of various concentrations of test substances (0 μM, and within the range 0.01-100 μM) in 40 μL of assay buffer [40 mM Tris/HCl pH 7.5, 10 mM MgCl2, 1 mM MnCl2, 1.0 mM dithiothreitol, 8 μM ATP, 0.025% PEG20000, 24 ng/μL poly(Glu4Tyr)n, 0.2 μCi/measurement point ^33P-gamma ATP, 1.25% dimethyl sulphoxide] at 22° C. for 10 min. The reaction was stopped by adding EDTA solution (250 mM, pH 7.5, 15 μl/measurement point). 15 μl of each reaction mixture were loaded onto P30 filter strips (from Wallac), and non-incorporated ^33P-ATP was removed by washing the filter strips three times in 0.5% strength phosphoric acid for 10 min each time.
# as §2, §1
# [5] = test system: Aurora C, CDK1/CycB, CDK2/CycE, KDR (VEGFR2); assay: various kinase assays taken together (selectivity profile); details: comparison across the kinase assays, in words
# Description: The compounds of Examples 1 to 22 were tested for their inhibitory effect in the various kinase assays and in a proliferation assay with MCF7 human breast tumour cells (Tab. 1). […] Exemplary compounds 1-8, 10-12, 15, 17-20 inhibit the proliferation of human MCF7 breast tumour cells with half-maximum concentrations in the submicromolar range.
structure (smiles),measurement,setting,value
"Cc1c(NC(=O)N=S(C)(C)=O)cccc1Nc1ncc(Br)c(N[C@H](C)[C@@H](C)O)n1 [Example 9, N-({3-[(5-Bromo-4-{[(1R,2R)-2-hydroxy-1-methylpropyl]amino}pyrimidin-2-yl)amino]-2-methylphenyl)carbamoyl)-S,S-dimethylsulphoximide]",pIC50,[1],4.70
same,pIC50,[2],6.74
same,pIC50,[3],7.37
same,pIC50,[4],< 6.00
same,selectivity profile,[5],CDK-selective
